Results published in patent US20250179047A1, “5-[7-(3,4-DIHYDRO-1H-ISOQUINOLINE-2-CARBONYL)-1,2,3,4 TETRAHYDROISOQUINOLIN-6-YL]-1H-PYRROLE-3-CARBOXAMIDE DERIVATIVES, PHARMACEUTICAL COMPOSITIONS CONTAINING THEM AND THEIR USES AS PRO-APOPTOTIC AGENTS” (LES LABORATOIRES SERVIER, priority 2022, published 2025).

Assays:
[1] = tested on: KMS-12-PE Bcl-2 WT; assay: In vitro cytotoxicity CellTiter-Glo 48 h, KMS-12-PE Bcl-2 WT; type: cell-based; details: Homo sapiens, KMS-12-PE, C50 = concentration needed to reach 50% of the cellular viability
In short: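 Bcl-2 WT- and G101V-expressing KMS-12-PE cells; 48 h treatment at 37 °C, 5% CO2; CellTiter-Glo ATP luminescence; C50 from 11-point curves.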

[2] = biological target: BCL2 WT (Homo sapiens (Human), UniProt P10415); assay: TR-FRET competitive binding assay, BCL2 WT; details: Ki determined from IC50, read-out: TR_FRET EKI_Bcl2 WT
In short: (§1)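 Ki derived from IC50 (11-point dilution, 520/495 nm emission ratio) for displacing a fluorescein-labelled PUMA peptide (2 or 20 nM). Target was 0.5 nM E. coli-expressed Halo-tagged BCL2 (1-207) or BCLXL (2-196), terbium-labelled on Halo. Incubation 2 h at 23°C in pH 7.5 Hepes with 150 mM NaCl and 5% DMSO.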

[3] = biological target: BCL2 G101V (Homo sapiens, UniProt P10415, G101V); assay: TR-FRET competitive binding assay, BCL2 G101V; details: BCL2 G101V; Ki determined from IC50; read-out: TR_FRET EKI_Bcl2 G101V
In short: as §1

[4] = tested on: BCL2 G101V; assay: TR-FRET competitive binding assay, BCL2 G101V; set-up: species or system human; details: ratio Ki BCL2 G101V / Ki BCL2 WT
In short: as §1

[5] = biological target: BCLXL WT (Homo sapiens (Human), UniProt Q07817); assay: TR-FRET competitive binding assay, BCLXL WT; details: for Ki: BCLXL WT, Ki determined from IC50, read-out: TR_FRET EKI BclxL; for TR_FRET EKI BCLxL/WT selectivty ratio: ratio Ki BCLxL / Ki BCL2 WT
In short: as §1

[6] = biological target: BCL2 D103Y (Homo sapiens, UniProt P10415, D103Y); assay: TR-FRET competitive binding assay, BCL2 D103Y; details: Ki determined from IC50, read-out: TR_FRET EKI_Bcl2 D103Y
In short: as §1

Sequence of BCLXL WT (Q07817 other isoform, or with tags, fused parts or gaps): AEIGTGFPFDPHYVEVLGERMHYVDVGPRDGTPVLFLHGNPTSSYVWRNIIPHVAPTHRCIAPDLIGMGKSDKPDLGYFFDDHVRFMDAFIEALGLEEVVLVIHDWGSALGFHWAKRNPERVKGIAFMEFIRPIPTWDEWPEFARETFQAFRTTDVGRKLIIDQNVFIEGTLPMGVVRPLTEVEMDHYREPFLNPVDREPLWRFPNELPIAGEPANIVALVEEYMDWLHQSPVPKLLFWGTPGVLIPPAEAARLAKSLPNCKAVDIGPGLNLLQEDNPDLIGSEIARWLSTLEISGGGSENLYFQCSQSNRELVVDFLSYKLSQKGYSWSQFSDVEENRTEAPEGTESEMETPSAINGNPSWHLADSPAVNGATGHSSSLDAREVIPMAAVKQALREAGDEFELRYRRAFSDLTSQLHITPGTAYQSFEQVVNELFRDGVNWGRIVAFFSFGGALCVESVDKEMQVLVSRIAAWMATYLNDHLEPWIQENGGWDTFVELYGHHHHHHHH

Structure (SMILES)	IC50 [1]	Ki [2]	Ki [3]	TR_FRET EKI G101V/WT selectivty ratio [4]	Ki [5]	TR_FRET EKI BCLxL/WT selectivty ratio [5]	Ki [6]
COc1ccc(N(C(=O)c2cc(-c3cc4c(cc3C(=O)N3Cc5ccccc5C[C@H]3C)CN(C(=O)Cc3ccc(OCCN5CCOCC5)cc3F)CC4)n(C)c2C)c2ccccc2)cn1 [Example 192, 5-[2-[2-[2-fluoro-4-(2-morpholinoethoxy)phenyl]acetyl]-7-[(3R)-3-methyl-3,4-dihydro-1H-isoquinoline-2-carbonyl]-3,4-dihydro-1H-isoquinolin-6-yl]-N-(6-methoxy-3-pyridyl)-1,2-dimethyl-N-phenyl-pyrrole-3-carboxamide]	0.0083 µM	0.04 nM	2.6 nM	58.9	7.7 nM	175.0	0.11 nM
Cc1c(C(=O)N(c2ccccc2)c2cnn(C(F)F)c2)cc(-c2cc3c(cc2C(=O)N2Cc4ccccc4C[C@H]2C)CN(C(=O)Cc2ccc(OCCN4CCOCC4)cc2F)CC3)n1C [Example 193, N-[1-(difluoromethyl)pyrazol-4-yl]-5-[2-[2-[2-fluoro-4-(2-morpholinoethoxy)phenyl]acetyl]-7-[(3R)-3-methyl-3,4-dihydro-1H-isoquinoline-2-carbonyl]-3,4-dihydro-1H-isoquinolin-6-yl]-1,2-dimethyl-N-phenyl-pyrrole-3-carboxamide]	0.0062 µM	0.04 nM	3.1 nM	72.0	11 nM	256.9	0.1 nM
Cc1c(C(=O)N(c2ccccc2)c2cnc3c(cnn3C)c2)cc(-c2cc3c(cc2C(=O)N2Cc4ccccc4C[C@H]2C)CN(C(=O)Cc2ccc(OCCN4CCOCC4)cc2F)CC3)n1C [Example 194, 5-[2-[2-[2-fluoro-4-(2-morpholinoethoxy)phenyl]acetyl]-7-[(3R)-3-methyl-3,4-dihydro-1H-isoquinoline-2-carbonyl]-3,4-dihydro-1H-isoquinolin-6-yl]-1,2-dimethyl-N-(1-methylpyrazolo[3,4-b]pyridin-5-yl)-N-phenyl-pyrrole-3-carboxamide]	0.0026 µM	0.03 nM	1 nM	35.7	3.3 nM	115.0	0.08 nM
Cc1c(C(=O)N(c2ccccc2)c2cnc3c(cnn3C)c2)cc(-c2cc3c(cc2C(=O)N2Cc4ccccc4C[C@H]2C)CN(C(=O)Cc2ccc(OCCN4CCOCC4)cc2)CC3)n1C [Example 195, 1,2-dimethyl-5-[7-[(3R)-3-methyl-3,4-dihydro-1H-isoquinoline-2-carbonyl]-2-[2-[4-(2-morpholinoethoxy)phenyl]acetyl]-3,4-dihydro-1H-isoquinolin-6-yl]-N-(1-methylpyrazolo[3,4-b]pyridin-5-yl)-N-phenyl-pyrrole-3-carboxamide]	0.0041 µM	0.014 nM	0.9 nM	63.6	5 nM	359.1	0.05 nM
COCCn1cc(N(C(=O)c2cc(-c3cc4c(cc3C(=O)N3Cc5ccccc5C[C@H]3C)CN(C(=O)Cc3ccc(OCCN5CCOCC5)cc3)CC4)n(C)c2C)c2ccccc2)cn1 [Example 196, N-[1-(2-methoxyethyl)pyrazol-4-yl]-1,2-dimethyl-5-[7-[(3R)-3-methyl-3,4-dihydro-1H-isoquinoline-2-carbonyl]-2-[2-[4-(2-morpholinoethoxy)phenyl]acetyl]-3,4-dihydro-1H-isoquinolin-6-yl]-N-phenyl-pyrrole-3-carboxamide]	0.0089 µM	0.03 nM	2.7 nM	83.2	9.6 nM	301.1	0.09 nM
Cc1c(C(=O)N(c2ccccc2)c2cnn(C)c2)cc(-c2cc3c(cc2C(=O)N2Cc4ccccc4C[C@H]2C)CN(C(=O)Cc2ccc(OCCN4CCOCC4)cc2F)CC3)n1C [Example 197, 5-[2-[2-[2-fluoro-4-(2-morpholinoethoxy)phenyl]acetyl]-7-[(3R)-3-methyl-3,4-dihydro-1H-isoquinoline-2-carbonyl]-3,4-dihydro-1H-isoquinolin-6-yl]-1,2-dimethyl-N-(1-methylpyrazol-4-yl)-N-phenyl-pyrrole-3-carboxamide]	0.0023 µM	0.02 nM	1.2 nM	63.9	9.9 nM	523.3	0.05 nM
Cc1c(C(=O)N(c2ccc(F)cc2)c2cnn(C)c2)cc(-c2cc3c(cc2C(=O)N2Cc4ccccc4C[C@H]2C)CN(C(=O)Cc2ccc(OCCN4CCOCC4)cc2)CC3)n1C [Example 200, N-(4-fluorophenyl)-1,2-dimethyl-5-[7-[(3R)-3-methyl-3,4-dihydro-1H-isoquinoline-2-carbonyl]-2-[2-[4-(2-morpholinoethoxy)phenyl]acetyl]-3,4-dihydro-1H-isoquinolin-6-yl]-N-(1-methylpyrazol-4-yl)pyrrole-3-carboxamide]	0.0155 µM	0.06 nM	5.5 nM	88.0	26 nM	419.8	0.15 nM
COc1ncc(N(C(=O)c2cc(-c3cc4c(cc3C(=O)N3Cc5ccccc5C[C@H]3C)CN(C(=O)Cc3ccc(OCCN5CCOCC5)cc3F)CC4)n(C)c2C)c2ccccc2)cc1C#N [Example 202, N-(5-cyano-6-methoxy-3-pyridyl)-5-[2-[2-[2-fluoro-4-(2-morpholinoethoxy)phenyl]acetyl]-7-[(3R)-3-methyl-3,4-dihydro-1H-isoquinoline-2-carbonyl]-3,4-dihydro-1H-isoquinolin-6-yl]-1,2-dimethyl-N-phenyl-pyrrole-3-carboxamide]	0.0256 µM	0.05 nM	1.2 nM	22.9	10.9 nM	214.7	0.11 nM
Cc1ccc(N(C(=O)c2cc(-c3cc4c(cc3C(=O)N3Cc5ccccc5C[C@H]3C)CN(C(=O)Cc3ccc(OCCN5CCOCC5)cc3F)CC4)n(C)c2C)c2ccccc2)cc1C#N [Example 203, N-(3-cyano-4-methyl-phenyl)-5-[2-[2-[2-fluoro-4-(2-morpholinoethoxy)phenyl]acetyl]-7-[(3R)-3-methyl-3,4-dihydro-1H-isoquinoline-2-carbonyl]-3,4-dihydro-1H-isoquinolin-6-yl]-1,2-dimethyl-N-phenyl-pyrrole-3-carboxamide]	0.0091 µM	0.02 nM	0.5 nM	23.3	8.5 nM	404.3	0.06 nM
Cc1ccc(N(C(=O)c2cc(-c3cc4c(cc3C(=O)N3Cc5ccccc5C[C@H]3C)CN(C(=O)Cc3ccc(OCCN5CCOCC5)cc3)CC4)n(C)c2C)c2ccccc2)cc1C#N [Example 204, N-(3-cyano-4-methyl-phenyl)-1,2-dimethyl-5-[7-[(3R)-3-methyl-3,4-dihydro-1H-isoquinoline-2-carbonyl]-2-[2-[4-(2-morpholinoethoxy)phenyl]acetyl]-3,4-dihydro-1H-isoquinolin-6-yl]-N-phenyl-pyrrole-3-carboxamide]	0.0111 µM	0.06 nM	1.9 nM	30.8	9.6 nM	152.4	0.17 nM
COC[C@@H]1Cc2ccccc2CN1C(=O)c1cc2c(cc1-c1cc(C(=O)N(c3ccccc3)c3cnn(C(F)F)c3)c(C)n1C)CCN(C(=O)Cc1ccc(OCCN3CCOCC3)cc1)C2 [Example 205, N-[1-(difluoromethyl)pyrazol-4-yl]-5-[7-[(3S)-3-(methoxymethyl)-3,4-dihydro-1H-isoquinoline-2-carbonyl]-2-[2-[4-(2-morpholinoethoxy)phenyl]acetyl]-3,4-dihydro-1H-isoquinolin-6-yl]-1,2-dimethyl-N-phenyl-pyrrole-3-carboxamide]	0.0126 µM	0.07 nM	7.4 nM	100.3	20 nM	270.3	0.19 nM
Cc1c(C(=O)N(c2ccccc2)c2cnn(C(F)F)c2)cc(-c2cc3c(cc2C(=O)N2Cc4ccccc4C[C@H]2CN2CC4(CCC4)C2)CN(C(=O)Cc2ccc(OCCN4CCOCC4)cc2)CC3)n1C [Example 206, 5-[7-[(3S)-3-(2-azaspiro[3.3]heptan-2-ylmethyl)-3,4-dihydro-1H-isoquinoline-2-carbonyl]-2-[2-[4-(2-morpholinoethoxy)phenyl]acetyl]-3,4-dihydro-1H-isoquinolin-6-yl]-N-[1-(difluoromethyl)pyrazol-4-yl]-1,2-dimethyl-N-phenyl-pyrrole-3-carboxamide]	0.047 µM	0.014 nM	4.5 nM	321.5	107 nM	7642.9	0.09 nM
